Measurements taken from ChEMBL document CHEMBL1201862, “PubChem BioAssay data set” (2004).
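Growth conditions: 96-well plates. Treatment: test compound, 48 hours, 5 concentrations. Analysis: linear interpolation between bracketing concentrations; unreached endpoints set to highest concentration. Here, GI50 denotes the concentration required for 50% inhibition of growth.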 The source made the active and inactive calls. Rule as the data show it: active = GI50 up to about 1.1 µM and inactive = higher.

Assays:
Test in all cases: DTP human tumour cell line panel, 48 h
HCT-15 = tested on: HCT-15
MDA-MB-435 = tested on: MDA-MB-435
HOP-92 = tested on: HOP-92
T47D = tested on: T47D
MOLT-4 = tested on: MOLT-4
786-0 = tested on: 786-0
MCF7 = tested on: MCF7
NCI-H23 = tested on: NCI-H23
A549 = tested on: A549
SF-539 = tested on: SF-539
HOP-62 = tested on: HOP-62
UACC-257 = tested on: UACC-257
KM12 = tested on: KM12
CCRF-CEM = tested on: CCRF-CEM
Malme-3M = tested on: Malme-3M
SNB-19 = tested on: SNB-19
UACC-62 = tested on: UACC-62
NCI-H522 = tested on: NCI-H522
HL-60 = tested on: HL-60

| SMILES | GI50 (HCT-15) [µM] | GI50 (MDA-MB-435) | GI50 (HOP-92) | GI50 (T47D) | GI50 (MOLT-4) | GI50 (786-0) | GI50 (MCF7) | GI50 (NCI-H23) | GI50 (A549) | GI50 (SF-539) | GI50 (HOP-62) | GI50 (UACC-257) | GI50 (KM12) | GI50 (CCRF-CEM) | GI50 (Malme-3M) | GI50 (SNB-19) | GI50 (UACC-62) | GI50 (NCI-H522) | GI50 (HL-60) |
| --- | --- | --- | --- | --- | --- | --- | --- | --- | --- | --- | --- | --- | --- | --- | --- | --- | --- | --- | --- |
| OC1c2ccccc2CCC1CN1CCN(CCOC(c2ccc(F)cc2)c2ccc(F)cc2)CC1 (stereo not given) | 6.05 | 17.5 µM (inactive) | 9.16 µM (inactive) | 12.5 µM (inactive) | 8.83 µM (inactive) | 11.7 µM (inactive) | 14.5 µM (inactive) | 14.5 µM (inactive) | 23.6 µM (inactive) | 0.186 µM (active) | 20.5 µM (inactive) | 14.7 µM (inactive) | 20.5 µM (inactive) | 0.145 µM (active) | 15.2 µM (inactive) | 31.6 µM (inactive) | 13.8 µM (inactive) | 15.7 µM (inactive) |  |
| Cc1ccc(S(=O)(=O)NC2C(=O)c3ccccc3C(=O)C2n2cnc3ccccc32)cc1 (stereo not given) | 25.6 | 18.6 µM (inactive) | 14.4 µM (inactive) | 25.2 µM (inactive) | 19.2 µM (inactive) | 39.5 µM (inactive) | 31.6 µM (inactive) | 23.9 µM (inactive) | 33.5 µM (inactive) | 24.7 µM (inactive) | 50.4 µM (inactive) | 28.9 µM (inactive) | 9.4 µM (inactive) | 53.1 µM (inactive) | 0.214 µM (active) | 27.4 µM (inactive) | 28.3 µM (inactive) |  | 16.6 µM (inactive) |
| O=C(O)c1ccccc1C(=O)c1ccc2c(c1)Cc1ccccc1-2 | 57.5 | 63.4 µM (inactive) | > 100 µM (inactive) | 80.4 µM (inactive) | > 100 µM (inactive) | > 100 µM (inactive) | > 100 µM (inactive) | > 100 µM (inactive) | 33.3 µM (inactive) | > 100 µM (inactive) | > 100 µM (inactive) | > 100 µM (inactive) | 64.1 µM (inactive) |  | 80.9 µM (inactive) | > 100 µM (inactive) | 66.8 µM (inactive) | 41.9 µM (inactive) |  |
| CC1(CCCO)CCCCCCCCCC(C)(CCCO)C1=O (stereo not given) | > 100 | > 100 µM (inactive) | > 100 µM (inactive) | > 100 µM (inactive) | > 100 µM (inactive) | > 100 µM (inactive) | > 100 µM (inactive) | > 100 µM (inactive) | 87.3 µM (inactive) |  | > 100 µM (inactive) | > 100 µM (inactive) | > 100 µM (inactive) | 55 µM (inactive) | > 100 µM (inactive) | > 100 µM (inactive) | > 100 µM (inactive) | > 100 µM (inactive) | 40 µM (inactive) |
| O=c1oc2ccc(Cl)cc2cc1-c1cn2ccccc2n1 | > 100 | > 100 µM (inactive) | 21.9 µM (inactive) | > 61.2 µM (inactive) | > 100 µM (inactive) | 3.24 µM (inactive) | 24.5 µM (inactive) | 15.7 µM (inactive) | 14.7 µM (inactive) | 8.09 µM (inactive) | 3.67 µM (inactive) | > 94.4 µM (inactive) | > 100 µM (inactive) | > 81.3 µM (inactive) | 3.46 µM (inactive) |  | 13 µM (inactive) | 36.6 µM (inactive) |  |
| Clc1cc2nnn(C3CCCO3)c2cc1Cl (stereo not given) | > 100 | > 100 µM (inactive) |  | > 100 µM (inactive) | 83.6 µM (inactive) | > 100 µM (inactive) | > 100 µM (inactive) | 60.1 µM (inactive) | > 100 µM (inactive) | > 100 µM (inactive) | > 100 µM (inactive) | > 100 µM (inactive) |  | > 100 µM (inactive) | > 100 µM (inactive) |  | > 100 µM (inactive) | > 100 µM (inactive) | > 100 µM (inactive) |
| Cc1ccc(CC2(OCCN(C)C)CCC(C(C)(C)C)CC2)cc1 (stereo not given) | 4.63 | 2.4 µM (inactive) |  | 2.68 µM (inactive) | 2.04 µM (inactive) | 1.88 µM (inactive) | 3.08 µM (inactive) | 11.4 µM (inactive) | 7 µM (inactive) | 3.26 µM (inactive) | 2.55 µM (inactive) | 2.09 µM (inactive) | 2.86 µM (inactive) | 2.65 µM (inactive) | 1.99 µM (inactive) | 5.28 µM (inactive) | 3.31 µM (inactive) | 4.88 µM (inactive) | 2.02 µM (inactive) |
| CC(C)(C)OC(=O)c1cnc(Cl)cn1 | 11.7 | 56.6 µM (inactive) | 3.12 µM (inactive) | 35.2 µM (inactive) | 27.3 µM (inactive) | > 100 µM (inactive) | 23.5 µM (inactive) | 20.7 µM (inactive) | 69.7 µM (inactive) | > 100 µM (inactive) | > 100 µM (inactive) | 30.4 µM (inactive) | 22.3 µM (inactive) | 18.7 µM (inactive) | 51.6 µM (inactive) | 95.3 µM (inactive) | 31.8 µM (inactive) | 1.05 µM (active) |  |
